Where two headings read alike, the source gives them in different places.
Tests used:
Format in all cases: cell-based, human
MDA-MB-453 = test: Compounds cellular killing in MDA-MB-453; details: for EC50 / Emax: Homo sapiens; for killing activity compared with 1-B: MDA-MB-453, FIG. 1
Procedure: Seeding cells MDA-MB-453 (2E3/well) into 96-well plate (Greiner: 655090), 100 ul/well. Incubation at 37° C., 5% CO2, overnight.
Adding the fresh growth-medium containing the varying concentrations of compounds, 50 ul/well.
Incubation at 37° C., 5% CO2, 6 days.
The cell viability detected by Cell Titer-Glo (Promega, G7573). Add 70 µL/well of CellTiter-Glo® Reagent in each well.
Allow the plates to incubate at room temperature for 10 minutes to stabilize luminescent signal.
Analyze with Microplate Reader.

A375 = test: Compounds cellular killing in A375; details: Homo sapiens, A375, 6 days, Cell Titer-Glo
How it was run: (§1)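 A375 (1E3/well) or Calu-6 (2E3/well) cells were seeded overnight, then exposed to varying compound concentrations for 6 days at 37 °C, 5% CO2. Viability was read by CellTiter-Glo luminescence.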

Calu-6 = test: Compounds cellular killing in Calu-6; details: Homo sapiens, Calu-6, […], Calu-6, 6 days, Cell Titer-Glo
How it was run: as §1

Structure (SMILES)	EC50 (MDA-MB-453; MDA-MB-453, […]) [nM]	Emax (MDA-MB-453; MDA-MB-453, […]) [%]	killing activity compared with 1-B (MDA-MB-453)	EC50 (A375; A-375, […]) [nM]	Emax (A375; A-375, […]) [%]	EC50 (Calu-6) [nM]	Emax (Calu-6) [%]	Emax (A375; A-375) [%]	EC50 (MDA-MB-453; MDA-MB-453, 6 days, Cell Titer-Glo, read-out: EC50) [nM]	Emax (MDA-MB-453; MDA-MB-453, 6 days, Cell Titer-Glo, read-out: Emax (%)) [%]
CC[C@@]1(O)C(=O)OCc2c1cc1n(c2=O)Cc2c-1nc1cc(F)c(C)c3c1c2[C@@H](N1CCNCC1)CC3 [Example 1-6, (1S,9S)-9-ethyl-5-fluoro-9-hydroxy-4-methyl-1-(piperazin-1-yl)-1,2,3,9,12,15-hexahydro-10H,13H-benzo[de]pyrano[3′,4′:6,7]indolizino[1,2-b]quinoline-10,13-dione]	3.3	93.4	less potent than 1-B							
CC[C@@]1(O)C(=O)OCc2c1cc1n(c2=O)Cc2c-1nc1cc(F)c(C)c3c1c2[C@@H](N(C)C)CC3 [Example 1-5, (1S,9S)-1-(dimethylamino)-9-ethyl-5-fluoro-9-hydroxy-4-methyl-1,2,3,9,12,15-hexahydro-10H,13H-benzo[de]pyrano[3′,4′:6,7]indolizino[1,2-b]quinoline-10,13-dione]	1.3	93.3	comparable killing activity to 1-B							
CC[C@@]1(O)C(=O)OCc2c1cc1n(c2=O)Cc2c-1nc1cc(F)c(C)c3c1c2[C@@H](N1CCN(C)CC1)CC3 [Example 1-7, (1S,9S)-9-ethyl-5-fluoro-9-hydroxy-4-methyl-1-(4-methylpiperazin-1-yl)-1,2,3,9,12,15-hexahydro-10H,13H-benzo[de]pyrano[3′,4′:6,7]indolizino[1,2-b]quinoline-10,13-dione]	1.2	96.8	comparable killing activity to 1-B							
CC[C@@]1(O)C(=O)OCc2c1cc1n(c2=O)Cc2c-1nc1cc(O)cc3c1c2[C@@H](N)CC3 [Example 1-24, (1S,9S)-1-amino-9-ethyl-5,9-dihydroxy-1,2,3,9,12,15-hexahydro-10H,13H-benzo[de]pyrano[3′,4′:6,7]indolizino[1,2-b]quinoline-10,13-dione methanesulfonate]				112	96	118	94.4			
CC[C@@]1(O)C(=O)OCc2c1cc1n(c2=O)Cc2c-1nc1cc(C)c(C)c3c1c2[C@@H](NC(=O)CO)CC3 [Example 2-1, N-((1S,9S)-9-ethyl-9-hydroxy-4,5-dimethyl-10,13-dioxo-2,3,9,10,13,15-hexahydro-1H,12H-benzo[de]pyrano[3′,4′:6,7]indolizino[1,2-b]quinolin-1-yl)-2-hydroxyacetamide]				23	98	10	98			
CC[C@@]1(O)C(=O)OCc2c1cc1n(c2=O)Cc2c-1nc1cc(F)c(C)c3c1c2[C@@H](N)CC3 [Example 1-B, reference compound]							98.4	100	0.9	99.4
CC[C@@]1(O)C(=O)OCc2c1cc1n(c2=O)Cc2c-1nc1cc(F)c(C)c3c1c2[C@@H](NC(=O)C(F)(F)CO)CC3 [Example 2-3, N-((1S,9S)-9-ethyl-5-fluoro-9-hydroxy-4-methyl-10,13-dioxo-2,3,9,10,13,15-hexahydro-1H,12H-benzo[de]pyrano[3′,4′:6,7]indolizino[1,2-b]quinolin-1-yl)-2,2-difluoro-3-hydroxypropanamide]				2.1	100	0.8	98.5			
CC[C@@]1(O)C(=O)OCc2c1cc1n(c2=O)Cc2c-1nc1cc(F)c(C)c3c1c2[C@@H](NC(=O)[C@@H]1C[C@H](O)CN1C)CC3 [Example 2-37, (2S,4S)—N-((1S,9S)-9-ethyl-5-fluoro-9-hydroxy-4-methyl-10,13-dioxo-2,3,9,10,13,15-hexahydro-1H,12H-benzo[de]pyrano[3′,4′:6,7]indolizino[1,2-b]quinolin-1-yl)-4-hydroxy-1-methylpyrrolidine-2-carboxamide]				3.7	99.9	1.5	98.8			
CC[C@@]1(O)C(=O)OCc2c1cc1n(c2=O)Cc2c-1nc1cc(O)cc3c1c2[C@@H](NC(=O)CO)CC3 [Example 2-32, N-((1S,9S)-9-ethyl-5,9-dihydroxy-10,13-dioxo-2,3,9,10,13,15-hexahydro-1H,12H-benzo[de]pyrano[3′,4′:6,7]indolizino[1,2-b]quinolin-1-yl)-2-hydroxyacetamide]				368	93.7	81.5	93.7			
CC[C@@]1(O)C(=O)OCc2c1cc1n(c2=O)Cc2c-1nc1cc(F)c(C)c3c1c2C(C(=O)NCCO)CC3 (single isomer, unassigned) [Example 2-52]				16.1	98.9	6	97.3			
CC[C@@]1(O)C(=O)OCc2c1cc1n(c2=O)Cc2c-1nc1cc(F)cc3c1c2[C@@H](NC(=O)CO)CC3 [Example 2-31, N-((1S,9S)-9-ethyl-5-fluoro-9-hydroxy-10,13-dioxo-2,3,9,10,13,15-hexahydro-1H,12H-benzo[de]pyrano[3′,4′:6,7]indolizino[1,2-b]quinolin-1-yl)-2-hydroxyacetamide]				6.2	98.9	4.2	98.9			

From patent publication US20250295798A1, “LIGAND-DRUG CONJUGATE OF EXATECAN ANALOGUE, AND MEDICAL USE THEREOF” (BeiGene Switzerland GmbH, priority 2022, published 2025)
